Activity calls are given as the source filed them. The rule behind the calls is not given here.
Tests used:
Chymotrypsinogen A = Chymotrypsinogen A (Bos taurus, UniProt P00766); experiment: Inhibition of bovine pancreas alpha-chymotrypsin preincubated for 10 mins by spectrophotometry
Trypsin (Sus scrofa) = Trypsin (Sus scrofa) (UniProt P00761); experiment: Inhibition of pig pancreas trypsin at 10 uM preincubated for 10 mins by spectrophotometry
[1] = target: Chymotrypsin-like elastase family member 1 (Sus scrofa, UniProt P00772); experiment: Inhibition of pig pancreatic elastase preincubated for 15 mins by spectrophotometry
Chain of Chymotrypsin-like elastase family member 1 (P00772 whole entry): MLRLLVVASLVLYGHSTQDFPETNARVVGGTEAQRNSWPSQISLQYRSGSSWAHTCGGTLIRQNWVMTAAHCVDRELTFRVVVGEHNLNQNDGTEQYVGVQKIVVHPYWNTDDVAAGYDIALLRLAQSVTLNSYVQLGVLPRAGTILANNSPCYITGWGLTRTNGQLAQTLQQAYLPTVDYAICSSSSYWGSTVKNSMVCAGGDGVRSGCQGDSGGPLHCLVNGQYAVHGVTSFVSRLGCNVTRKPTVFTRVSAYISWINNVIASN

Chain of Trypsin (Sus scrofa) (P00761 whole entry): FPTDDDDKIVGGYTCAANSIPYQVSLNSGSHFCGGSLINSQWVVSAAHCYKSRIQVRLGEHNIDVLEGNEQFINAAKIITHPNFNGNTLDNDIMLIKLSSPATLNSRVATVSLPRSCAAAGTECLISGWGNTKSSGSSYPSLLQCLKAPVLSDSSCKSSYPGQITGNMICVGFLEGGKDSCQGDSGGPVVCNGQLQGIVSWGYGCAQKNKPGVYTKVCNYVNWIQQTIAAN

With `C/C=C1\NC(=O)[C@@H](NC(=O)[C@@H](NC(=O)[C@H](C)NC(=O)CCC)[C@@H](C)O)[C@@H](C)OC(=O)[C@H](C(C)C)NC(=O)[C@H](Cc2ccc(O)cc2)N(C)C(=O)[C@H](Cc2ccccc2)N2C(=O)[C@H](CC[C@H]2O)NC1=O` [MOLASSAMIDE] the IC50 (Chymotrypsinogen A) was 0.234 µM, the inhibition (Trypsin (Sus scrofa)) was “inactive” and the IC50 [1] was 0.032 µM.

Source: ChEMBL document CHEMBL1154839, “Molassamide, a depsipeptide serine protease inhibitor from the marine cyanobacterium Dichothrix utahensis” (J Nat Prod, 2010)
